Reference: patent US5340818A, “Methods and compositions for inhibiting tumor cell growth” (priority 1993, dated 1994)
“And” between values parts separate entries of the source, which are not always exact repeats. Equal values may be shown once. Read-outs that look alike come from different tables or passages of the source.

Tests used:
[1] = tested on: P1534 leukemia; conditions: ip, 30 × 1 × 10 mg/kg/day; cited from earlier work
[2] = tested on: tumors; conditions: literature, cited from earlier work
[3] = tested on: Ehrlich ascites; conditions: ip, 30 × 1 × 10 mg/kg/day; cited from earlier work
[4] = tested on: C1498 leukemia; conditions: ip, 28 × 1 × 10 mg/kg/day; cited from earlier work
[5] = tested on: L5178Y leukemia; conditions: ip, 28 × 1 × 10 mg/kg/day; cited from earlier work
[6] = tested on: S91 melanoma; conditions: ip, 36 × 1 × 9 mg/kg/day; cited from earlier work
[7] = tested on: B82 leukemia; conditions: ip, 37.5 × 1 × 7 mg/kg/day; cited from earlier work
[8] = tested on: Adrenocarcinoma 755; conditions: ip, 30 × 1 × 10 mg/kg/day; cited from earlier work
[9] = tested on: Mecca lymphosarcoma; conditions: ip, 30 × 1 × 10 mg/kg/day; cited from earlier work
[10] = tested on: L5178Y cells; conditions: cultured L5178Y cells; cited from earlier work
[11] = tested on: Sarcoma 180; conditions: ip, 30 × 1 × 10 mg/kg/day; cited from earlier work
[12] = tested on: Ridgeway osteogenic sarcoma; conditions: ip, 48 × 1 × 9 mg/kg/day; cited from earlier work
[13] = tested on: DNA; conditions: cited from earlier work
[14] = tested on: Shionogi carcinoma 115; conditions: ip, 36 × 1 × 9 mg/kg/day; cited from earlier work
[15] = tested on: X5563 myeloma; conditions: ip, 30 × 1 × 8 mg/kg/day; cited from earlier work
[16] = tested on: AKR leukemia; conditions: ip, 28 × 1 × 10 mg/kg/day; cited from earlier work
[17] = tested on: L1210/Dx cells; experiment: Cross-resistance studies: growth inhibition of doxorubicin-resistant L1210/Dx cells; format: cell-based
[18] = tested on: L1210/0 cells; experiment: Cross-resistance studies: growth inhibition of doxorubicin-sensitive L1210/0 cells; format: cell-based; conditions: L1210/0 (doxorubicin sensitive)
[19] = tested on: L1210 leukemia; experiment: L1210 leukemia survival time evaluation in BDF1 mice; conditions: for Day 6 AWC / MST / N/T (nine day survivors/total mice) / Survival Time, individual mice / % ILS (increase in lifespan): day 1, QDX4 ip; for % ILS (increase in lifespan): 25% or greater indicates activity
[20] = tested on: BREI; experiment: Survival time evaluation, BREI (ip) in BDF1 mice; format: in vivo, mouse; set-up: Survival Time, individual mice / AST: unit not given here; conditions: for AST / Day 7 AWC / N/T (15 day survivors/total mice) / Survival Time, individual mice / % ILS: day 1, QDX4; for % ILS: 25% or greater indicates activity
Protocol: 0.2 ML BREI (ip) ca. 10 6 cells IN BDF1 (FEMALE) 19-21 g
DILUENT - COCKTAIL DIL 1:10 dextrose
SCHEDULE - DAY 1, QDX4 bid (ip) DAY 1, QDX4 per os

COc1cc2c(c3c1c(=O)c1ccccc1n3C)C=CC(C)(C)O2 [Compound 1, Acronycine]
Percent activity [1]: 0% | antitumor activity, in words [2]: broad spectrum of antitumor activity | antitumor activity, in words ([2]; listed as acronycine): effective against a wide range of neoplasms | Percent activity [3]: 0(1) Percent | Percent activity [4]: 79(7) Percent | Percent activity [5]: 62% | Percent activity [6]: 100(4) Percent | Percent activity [7]: 61% | Percent activity [8]: 40(10) Percent | Percent activity [9]: 63(7) Percent | inhibition of incorporation of extracellular nucleosides into DNA and RNA, in words [10]: inhibit the incorporation of extracellular nuclosides into the DNA and RNA | Percent activity [11]: 40(9) Percent | Percent activity [12]: 100(10) Percent | interaction with DNA, in words [13]: did not interact with DNA | Percent activity [14]: 100(7) Percent | Percent activity [15]: 100(8) Percent | Percent activity [16]: 78(5) Percent

COc1c(OC)c(OC)c2c(c1O)c(=O)c1ccc(O)c(OC)c1n2C [Compound 31, Glyfoline]
(IC50) 0/(IC50) Dx ([17]; L1210/0 and L1210/Dx): 1.58 | IC50 ([17]; Mus musculus, L1210/Dx (doxorubicin resistant)): 3310 nM | IC50 [18]: 2090 nM | Day 6 AWC ([19]; 6.25 mg/kg): +1.8 g | MST ([19]; 6.25 mg/kg): 7.0 | N/T (nine day survivors/total mice) ([19]; 6.25 mg/kg): 0/2 | Survival Time, individual mice ([19]; 6.25 mg/kg): 7 | % ILS (increase in lifespan) ([19]; 6.25 mg/kg): 0% | Day 6 AWC ([19]; 12.5 mg/kg): +2.0 g | MST ([19]; 12.5 mg/kg): 8.0 | N/T (nine day survivors/total mice) ([19]; 12.5 mg/kg): 0/2 | Survival Time, individual mice ([19]; 12.5 mg/kg): 8 | % ILS (increase in lifespan) ([19]; 12.5 mg/kg): 14% | antileukemic activity, in words ([19]; L1210, BDF mice, low doses, ip): some activity | AST ([20]; 100 mg/kg bid ip): 14.2 | Day 7 AWC ([20]; 100 mg/kg bid ip): +1.0 g | N/T (15 day survivors/total mice) ([20]; 100 mg/kg bid ip): 0/5 | Survival Time, individual mice ([20]; 100 mg/kg bid ip): 13 and 14 and 17 | % ILS ([20]; 100 mg/kg bid ip): 18% | AST ([20]; 500 mg/kg p.o.): > 19 | Day 7 AWC ([20]; 500 mg/kg p.o.): +0.8 g | N/T (15 day survivors/total mice) ([20]; 500 mg/kg p.o.): 1/5 | Survival Time, individual mice ([20]; 500 mg/kg p.o.): 13 and 14 and 15 and > 40 | % ILS ([20]; 500 mg/kg p.o.): > 62% | tumorfree survival (one mouse) ([20]; oral route): > 40 days
